Measured values from the METLIN SMRT retention time set (Domingo-Almenara et al. 2019).

Assay: gradient 5% acetonitrile 3 min, to 50% in 2 min, to 85% in 15 min, held 3 min, 100 µL/min
Details: column: Zorbax Extend-C18 2.1 x 50 mm; eluents: water / acetonitrile, 0.1% formic acid
Method in brief: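 Pure standards were analyzed in mixtures of ~100 molecules using HPLC coupled to a quadrupole time-of-flight mass spectrometer, in both positive and negative ionization mode. Separation used a Zorbax Extend-C18 column (2.1 × 50 mm, 1.8 μm) at 100 μL/min, with water and acetonitrile each containing 0.1% formic acid. Dead and dwell volumes were 40 μL and 900 μL, and data were collected over 3 months. Retention time was read from computationally picked adduct peaks, each inspected manually.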

| RP-LC retention time | Structure (SMILES) |
| --- | --- |
| 743 s | CC(C)CNC(=O)CCC(=O)N1c2ccccc2NC2=C(C(=O)CC(C)(C)C2)C1c1ccco1 (stereo not given) |
| 714 s | N#Cc1ccc(S(=O)(=O)N2CCCOCCNC(=O)[C@@H]3CCC[C@@H]32)cc1 |
| 632 s | CC(Cc1ccco1)NC(=O)C1CCN(S(C)(=O)=O)CC1 (stereo not given) |
| 720 s | O=C(Cn1cnc2nc3c(cc2c1=O)CCCC3)Nc1ccccc1Cl |
| 890 s | CCN(CC)C(=O)Cn1cc(C(=O)C(=O)N(C)Cc2ccccc2)c2ccccc21 |
| 1230 s | Cc1ccc(-c2noc(Cc3nnc(-c4cccc(Br)c4)o3)n2)cc1C |
| 810 s | CSc1ccc(-c2nc3c(C)cccn3c2Nc2ccccc2C)cc1 |
| 826 s | COc1cccc(CNC2=NCCNC23CCN(S(=O)(=O)c2c(C)cc(C)cc2C)CC3)c1 |
| 1280 s | CCN(C(=O)c1ccco1)c1nc(-c2ccc(C)cc2)cs1 |
| 972 s | COc1cc(Cl)c(C)cc1N1C=C(C#N)S(=O)(=O)c2ccc(F)cc21 |
| 1030 s | CC(NC(=O)c1ccco1)c1nc(-c2ccc(Oc3ccccc3)cc2)no1 (stereo not given) |
| 1340 s | Cc1ccc(-c2nc(Nc3ccccc3F)sc2C)cc1 |
| 726 s | Cc1ccc(Nc2c(-c3ccc(O)cc3)nc3ccc(Br)cn23)cc1 |
| 584 s | COc1ccc(C2(C(=O)N3CCn4c(C)nnc4C3)CC2)cc1 |
| 567 s | Cc1ncc2c(n1)CCCN(CC(=O)NC1CC1)C2=O |
| 976 s | CC(C)(C)c1ccc(C(=O)NC2CCN(c3cc(-c4ccc(Cl)cc4)[nH]n3)C2)cc1 (stereo not given) |
| 790 s | COc1ccc(CCNC(=O)C2=C3CCCN3c3ccc(F)cc3S2(=O)=O)cc1OC |
| 903 s | COc1ccc(OC)c(NC(=O)C2c3ccccc3C(=O)N3CCc4ccccc4C23)c1 (stereo not given) |
| 1220 s | CCOc1nc2ccccc2nc1N1CCCC(C(=O)Nc2ccc(F)cc2F)C1 (stereo not given) |
| 577 s | Cc1nccn1CC(=O)N1CCCC(OCc2nc(C3CC3)no2)C1 (stereo not given) |
| 596 s | CNC(=O)c1cc(=O)[nH]c2c(Cl)cccc12 |
| 892 s | Cc1nc(C2CN(S(=O)(=O)c3ccccc3C(F)(F)F)CC23CCOCC3)no1 (stereo not given) |
| 1030 s | Cc1ccc(S(=O)(=O)N2CCC(C)(C(=O)NCc3ccccc3C)CC2)cc1C |

| RP-LC retention time | Structure (SMILES) |
| --- | --- |
| 764 s | COc1ccc(Cl)cc1NC(=O)N1CCC(C(=O)Nc2nccs2)CC1 |
| 592 s | COCC1CN(C2CCC2)CC12CCN(C(=O)c1ccsc1)CC2 (stereo not given) |
| 574 s | Cc1nn(-c2ccc(C(=O)N3CCN(c4ccccn4)CC3)cc2)c2c1C(=O)CCC2 |
| 1200 s | Cc1cc(Cl)ccc1OCc1nc(-c2cccc(-c3ccnn3C)c2)no1 |
| 1150 s | CCc1cccc(NC(=O)c2cc(CC)n3nccc3n2)c1 |
| 771 s | Cn1c(=O)c(N2CCC(NC(=O)NCc3ccc(F)cc3)CC2)nc2cccnc21 |
| 618 s | COc1ccccc1NC(=O)N1CCN(c2cc(C)nc(N3CCOCC3)n2)CC1 |
| 776 s | Cc1cccc(NC(=O)N2CCN(c3ccc(=O)n(-c4ccccc4)n3)CC2)c1 |
| 884 s | Cc1cccc(Nc2nc(C)c(C(=O)N3CCN(c4ccccc4)CC3)s2)n1 |
| 561 s | O=C(c1ccc2c(c1)OCO2)N1CCC(N2C[C@H]3C[C@H](C2)[C@H]2CCCC(=O)N2C3)CC1 |
| 748 s | O=C(Nc1ccc(F)cc1Cl)C1CCc2sc(C(=O)N3CCOCC3)cc2C1 (stereo not given) |
| 1360 s | Cc1ccc(-c2ncc3c(=O)n(Cc4ccc(Cl)cc4)c(=O)n(C)c3n2)cc1 |
| 716 s | Cc1ccc(-c2nc3ccccn3c2NC(=O)Nc2cccc(C)c2)cc1 |
| 1270 s | Cc1ccc(C)c(N2CCN(Cc3nc(-c4ccc(N5CCC(C)CC5)nc4)no3)CC2)c1 |
| 608 s | COc1cccc(OC)c1C(=O)NCCNC(=O)c1ccc(NC(=O)C2CC2)cc1 |
| 1090 s | CCc1cc(C(=O)Nc2ccccc2OC)nc2ccnn12 |
| 1240 s | O=C(Nc1ccc(Br)cc1)C1CCCN(c2ncc(-c3ccc(F)cc3)cn2)C1 (stereo not given) |
| 624 s | CCN(CC)CCNC(=O)Cn1nc(-c2ccc(Cl)cc2)ccc1=O |
| 1000 s | COc1ccc(CN2C=C(C(=O)OCc3noc(-c4ccco4)n3)C(C)=NS2(=O)=O)cc1 |
| 1110 s | CSc1ccc(CNC(=O)c2c(C)oc3ccn(Cc4cccc(F)c4)c(=O)c23)cc1 |
| 837 s | CCCN1C(=O)c2cccnc2Sc2cc(C(=O)NC3CCCC3)ccc21 |
| 1010 s | CC(C)c1ccc(CNC(=O)c2nnc(-c3ccc(S(=O)(=O)N(C)C)cc3)o2)cc1 |
| 946 s | COc1ccc(CCc2nc3nccc(-c4ccsc4)n3n2)cc1 |

| RP-LC retention time | Structure (SMILES) |
| --- | --- |
| 678 s | CCC1(O)CCC12CCN(C(=O)C1CC1)CC2 (stereo not given) |
| 1050 s | CCCCn1cc(S(=O)(=O)NCc2cccc(C(F)(F)F)c2)c2cccnc21 |
| 656 s | COCCOCc1nc(C2CCCN2C(=O)c2ccoc2)no1 (stereo not given) |
| 668 s | COc1ccc(NC(=O)NCC2CCOCC2)cc1F |
| 630 s | O=C(CCn1c(N2CCCCC2)nc2ccccc2c1=O)N1CCN(c2ccccn2)CC1 |
| 642 s | CCOc1ccc(C(=O)NCCc2nc3cccnc3n2CC)cc1 |
| 644 s | CCOc1ccc(CNC(=O)c2cc(-c3ccncc3)cn2C)cc1 |
| 799 s | CC(C)NC(=O)c1ccc(OCC2CCCN2C(=O)c2ccc(N(C)C)cc2)cc1 (stereo not given) |
| 918 s | COC(=O)c1cc(S(=O)(=O)N2CCCC2C(=O)Nc2ccccc2C(F)(F)F)cn1C (stereo not given) |
| 588 s | O=C(Nc1ccccc1Cl)N1CCN(CCn2c(-c3ccncc3)nc3cccnc32)CC1 |
| 925 s | CCc1cccc2c3c([nH]c12)[C@@](CC)(CC(=O)O)OCC3 |
| 698 s | CS(=O)(=O)N1CCCN(C(=O)Nc2ccccc2)CCNC(=O)CC1c1ccccc1 (stereo not given) |
| 793 s | Cn1cccc1C(=O)C(=O)NCc1ccc2c(c1)OCO2 |
| 903 s | CCOC(=O)c1ccc(NC(=O)Cn2c(=O)cc(-c3nc(C)no3)c3ccccc32)cc1 |
| 967 s | COCC(=O)N(CC(=O)N1CCc2sccc2C1COc1ccc(Cl)c(C)c1)C(C)C (stereo not given) |
| 637 s | O=C(NC1CCCCC1)C1CCN(c2cncnc2N2CCCC2)CC1 |
| 874 s | CCOc1ccc(-n2nnnc2CN2CCN(S(=O)(=O)c3cccs3)CC2)cc1 |
| 741 s | NC(=O)C1CCN(C(=O)c2ccc3c(c2)CCCN3S(=O)(=O)c2ccc(Cl)cc2)CC1 |
| 554 s | CNC(=O)[C@@H]1C[C@H](Oc2cccnc2)CN1C(=O)C1CC=CC1 |
| 1040 s | O=C1N(c2cccc(F)c2)c2ncccc2S(=O)(=O)N1Cc1ccc(F)cc1 |
| 566 s | CN(C)C(CNC(=O)Nc1ccccc1C(F)(F)F)c1ccco1 (stereo not given) |
| 706 s | COc1ccc(Nc2nc(N3CCN(C)CC3)nc3c2C(=O)CC(C)(C)C3)cc1 |
| 966 s | C=CCNC(=O)c1nnn(Cc2ccc(C)cc2)c1-n1cccc1 |

| RP-LC retention time | Structure (SMILES) |
| --- | --- |
| 600 s | Cc1cccc(NC(=O)Cc2cn3cc(F)ccc3n2)c1C |
| 763 s | O=C(c1cnn2cccnc12)N1CCCC1c1ccccc1Cl (stereo not given) |
| 585 s | Cc1cc(C)c2c(N3CCOCC3)nc(C(=O)NCC3CCCO3)nc2n1 (stereo not given) |
| 1060 s | Cc1cc(NC(=O)Cn2nc(N3CCCC3)c3ccccc3c2=O)ccc1Br |
| 923 s | O=C(CN1C(=O)C(C(=O)N2CCCC2)Sc2ccccc21)N1CCN(c2cccc(Cl)c2)CC1 (stereo not given) |
| 576 s | COc1ccc(-c2nc3cnccn3c2Nc2ccc(C(=O)NCCN(C)C)cc2)cc1OC |
| 718 s | O=C(c1cc(C2CC2)on1)N1CCCC1 |
| 834 s | O=S(=O)(c1cccn2cnnc12)N(Cc1ccc(F)cc1)c1ccc(F)cc1 |
| 785 s | COc1ccc(C(=O)Nc2nc(-c3ccc4c(c3)N(C)C(=O)CO4)cs2)cc1OC |
| 644 s | CC(=O)N=c1sc(S(N)(=O)=O)nn1C |
| 629 s | CCN(CCNC(=O)C1CCN(c2nnc3ccc(Cl)cn23)CC1)c1ccccc1 |
| 649 s | COCCC(=O)N1CC(F)(F)C[C@H]1c1nc(COC)no1 |
| 765 s | CCn1c(SC)nnc1-c1nn(C)c2c1CN(C(=O)c1c(F)cccc1F)CC2 |
| 654 s | Cc1oc2c(c1C(=O)NCc1cccc(Br)c1)C1=NCCN1C=N2 |
| 774 s | CCNC(=O)c1ccc2c(c1)n(Cc1ccccc1)c(=O)c1ccnn12 |
| 825 s | COC(=O)c1c(NCCc2ccccc2)c2cccc(Cl)c2[nH]c1=O |
| 691 s | Cc1cc(NS(=O)(=O)c2cc(-c3[nH]ncc3C(=O)N3CCOCC3)oc2C)ccc1F |
| 830 s | CCOc1ccc(CC(=O)N2CCC3(CC2)C(=O)N(C)c2ccccc23)cc1OCC |
| 710 s | COc1cccc(C(=O)Nc2cccn3ncnc23)c1 |
| 756 s | COc1ccc(C(=O)NC2CCN(c3ccc(F)cc3)C2=O)cc1 (stereo not given) |
| 622 s | COc1ccc(OC)c(-c2ccc(=O)n(Cc3ccccn3)n2)c1 |
